Assay [1] concerns the target EGFR L858R/C797S Ba/F3 cells (Homo sapiens, UniProt P00533, C797S/L858R, cells depend on it). Briefly: Ba/F3 cell proliferation (Cell Titer Glo), EGFR L858R/C797S. The class given is cell-based, murine. As to conditions: 72 hours, Table 6. An excerpt: (§1) The EGFR mutant L858R Ba/F3 cells have been previously described (Zhou, W., et al. Nature 462, 2009, 1070-1074). The EGFR C797S and C775S mutations were introduced via site directed mutagenesis using the Quick Change Site-Directed Mutagenesis kit into a vector containing EGFR L858R mutation (Stratagene; La Jolla, CA) according to the manufacturer's instructions. All constructs were confirmed by DNA sequencing. The constructs were then shuttled into the retroviral vector JP1540 by either using the Cre-recombination system (Agilent Technologies, Santa Clara, CA) or the In-fusion HD Cloning kit (Takara Bio USA, Inc.; Mountain view, CA). Ba/F3 cells were then infected with retrovirus per standard protocols, as described previously (Zhou, et al, Nature 2009). Stable clones were obtained by selection in puromycin (2 μg/ml). All BaF/3 mutant cells were maintained in RPMI 1640 (Cellgro; Mediatech Inc., Herndon, CA) supplemented with 10% FBS, 100 units/mL penicillin, 100 units/mL streptomycin.
(§2) Growth and inhibition of growth was assessed by the Cell Titer Glo assay (Promega, Madison, WI) and was performed according to the manufacturer's instructions. The Cell Titer Glo assay is a luminescence-based method used to determine the number of viable cells based on quantitation of the ATP present, which is directly proportional to the amount of metabolically active cells present. Ba/F3 cells of different EGFR genotypes were exposed to compounds for 72 hours and the number of cells used per experiment was determined empirically as has been previously established (Zhou, et al., Nature 2009). All experimental points were set up in triplicates in 384-well plates. […] The curves were fitted using a non-linear regression model with a sigmoidal dose response.
(§3) Ba/F3 cells assay data are provided below in Table 5 and Table 6. For inhibitory activity against EGFR mutants, the following designations are used: <0.1 μM=A, 0.1 μM˜0.5 μM=B, 0.5 μM˜2.5 μM=C, ≥2.5 μM=D
In general terms: Cellular ATP, detected with luciferase, serves as a proxy for viable cell number.

In assay [2] the target is EGFR mutant L858R Ba/F3 cells (Homo sapiens, UniProt P00533, L858R, cells depend on it). Briefly: Ba/F3 cell proliferation (Cell Titer Glo), EGFR L858R. The class given is cell-based, murine. The note with it: 72 hours, Table 6, read-out: L858R BaF3.
Chain of EGFR mutant L858R Ba/F3 cells (P00533 whole entry L858R): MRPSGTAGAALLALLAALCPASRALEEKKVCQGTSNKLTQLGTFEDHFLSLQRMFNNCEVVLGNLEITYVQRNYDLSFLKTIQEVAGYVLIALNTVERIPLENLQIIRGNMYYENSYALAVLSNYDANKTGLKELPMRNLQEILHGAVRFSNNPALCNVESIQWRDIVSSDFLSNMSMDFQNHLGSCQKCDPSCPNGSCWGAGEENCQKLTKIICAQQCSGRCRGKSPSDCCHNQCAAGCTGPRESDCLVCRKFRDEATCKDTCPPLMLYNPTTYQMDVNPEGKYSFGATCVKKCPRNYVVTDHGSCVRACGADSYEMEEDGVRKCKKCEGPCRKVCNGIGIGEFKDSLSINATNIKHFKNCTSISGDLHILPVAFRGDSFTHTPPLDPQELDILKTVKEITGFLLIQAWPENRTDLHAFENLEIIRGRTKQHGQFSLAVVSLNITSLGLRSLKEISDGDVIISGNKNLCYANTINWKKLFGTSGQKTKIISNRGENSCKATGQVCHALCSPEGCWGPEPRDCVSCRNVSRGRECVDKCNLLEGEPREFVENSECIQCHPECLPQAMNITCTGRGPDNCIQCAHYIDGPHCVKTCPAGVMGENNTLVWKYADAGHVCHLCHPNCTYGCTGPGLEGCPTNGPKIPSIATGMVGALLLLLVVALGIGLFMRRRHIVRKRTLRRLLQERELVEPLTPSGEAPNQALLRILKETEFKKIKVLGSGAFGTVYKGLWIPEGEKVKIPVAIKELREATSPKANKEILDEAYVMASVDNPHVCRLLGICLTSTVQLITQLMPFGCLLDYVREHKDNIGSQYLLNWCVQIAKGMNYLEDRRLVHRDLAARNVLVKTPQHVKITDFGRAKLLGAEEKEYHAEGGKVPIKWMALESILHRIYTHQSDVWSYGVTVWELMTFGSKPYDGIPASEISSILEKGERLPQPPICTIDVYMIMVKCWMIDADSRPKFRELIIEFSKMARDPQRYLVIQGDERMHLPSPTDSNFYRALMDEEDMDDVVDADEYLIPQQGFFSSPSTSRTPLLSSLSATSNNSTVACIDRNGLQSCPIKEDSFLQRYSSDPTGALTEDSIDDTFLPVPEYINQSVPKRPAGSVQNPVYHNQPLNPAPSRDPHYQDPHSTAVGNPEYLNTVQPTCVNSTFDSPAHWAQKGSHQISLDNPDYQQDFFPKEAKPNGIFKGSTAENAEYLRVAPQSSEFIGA
Source text: as §1, §2, §3

“And” between values parts separate entries of the source, which are not always exact repeats. Equal entries are not always repeated.

Chain of EGFR L858R/C797S Ba/F3 cells (P00533 whole entry C797S/L858R, the tested form may be a part): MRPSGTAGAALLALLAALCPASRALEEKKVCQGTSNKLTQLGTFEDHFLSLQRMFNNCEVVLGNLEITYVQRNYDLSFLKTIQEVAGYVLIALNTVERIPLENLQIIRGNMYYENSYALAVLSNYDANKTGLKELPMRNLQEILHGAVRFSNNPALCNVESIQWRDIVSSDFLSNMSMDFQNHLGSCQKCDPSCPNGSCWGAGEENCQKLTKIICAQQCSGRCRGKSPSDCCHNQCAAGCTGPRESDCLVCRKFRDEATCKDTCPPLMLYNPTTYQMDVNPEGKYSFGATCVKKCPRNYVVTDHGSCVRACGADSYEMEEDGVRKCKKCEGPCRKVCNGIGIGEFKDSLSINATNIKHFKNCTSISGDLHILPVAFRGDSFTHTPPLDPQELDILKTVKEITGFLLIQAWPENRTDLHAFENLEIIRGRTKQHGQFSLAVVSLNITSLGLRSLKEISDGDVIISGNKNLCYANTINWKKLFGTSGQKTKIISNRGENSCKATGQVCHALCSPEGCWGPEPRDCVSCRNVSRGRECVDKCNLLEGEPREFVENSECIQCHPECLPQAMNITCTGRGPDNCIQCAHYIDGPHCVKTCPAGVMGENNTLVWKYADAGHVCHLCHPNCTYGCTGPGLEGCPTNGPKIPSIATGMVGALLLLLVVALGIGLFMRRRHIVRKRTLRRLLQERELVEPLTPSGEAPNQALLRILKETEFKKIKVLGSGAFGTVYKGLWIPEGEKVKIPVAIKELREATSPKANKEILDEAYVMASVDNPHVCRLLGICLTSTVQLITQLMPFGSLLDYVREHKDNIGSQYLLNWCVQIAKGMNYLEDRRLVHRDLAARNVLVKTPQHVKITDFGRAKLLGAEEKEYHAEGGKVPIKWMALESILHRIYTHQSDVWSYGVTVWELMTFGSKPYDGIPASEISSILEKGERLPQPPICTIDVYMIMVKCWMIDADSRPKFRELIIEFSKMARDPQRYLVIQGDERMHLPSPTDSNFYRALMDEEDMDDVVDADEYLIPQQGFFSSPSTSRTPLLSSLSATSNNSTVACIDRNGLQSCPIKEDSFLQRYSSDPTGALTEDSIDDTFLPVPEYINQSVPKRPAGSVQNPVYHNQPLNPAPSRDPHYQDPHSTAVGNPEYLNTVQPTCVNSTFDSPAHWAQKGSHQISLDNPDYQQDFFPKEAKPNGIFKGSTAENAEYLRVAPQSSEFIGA

As to `C=CC(=O)N1CCC(N2Cc3cnc(Nc4ccc(N5CCN(C)CC5)cc4Cl)nc3N(C)C2=O)c2ccccc21` (stereo not shown) [Compound 077], the GI50 in assay [1] and in assay [2] was less than 100 nM throughout.
For `C=CC(=O)N1CCC(N2Cc3cnc(Nc4ccc(CN5CCN(C)CC5)cc4)nc3N(C)C2=O)c2ccccc21` (stereo not shown) [Compound 078], the GI50 in assay [1] and in assay [2] was less than 100 nM each time.
As for `C=CC(=O)N1CCC(N2Cc3cnc(Nc4ccc(N5CCN(C)CC5)c(Cl)c4)nc3N(C)C2=O)c2ccccc21` (stereo not shown) [Compound 079], the GI50 in assay [1] and in assay [2] was less than 100 nM each time.
Turning to `C=CC(=O)N1CCC(N2Cc3cnc(Nc4ccc5c(c4)CCN(C)C5)nc3N(C)C2=O)c2ccccc21` (stereo not shown) [Compound 080], the GI50 in assay [1] and in assay [2] was less than 100 nM in each case.
`C=CC(=O)N1CCC(N2Cc3cnc(Nc4cccc(OC(F)F)c4)nc3N(C)C2=O)c2ccccc21` (stereo not shown) [Compound 081]: the GI50 in assay [1] and in assay [2] was less than 100 nM each time.
Regarding `C=CC(=O)N1CCC(N2Cc3cnc(Nc4ccc(F)c(C#N)c4)nc3N(C)C2=O)c2ccccc21` (stereo not shown) [Compound 082], the GI50 in assay [1] is 100 to 500 nM and < 100 nM; in assay [2] it was less than 100 nM.
Take `C=CC(=O)N1CCC(N2Cc3cnc(Nc4ccc(S(=O)(=O)NCCO)cc4)nc3N(C)C2=O)c2ccccc21` (stereo not shown) [Compound 084]: the GI50 in assay [1] and in assay [2] was no less than 2500 nM throughout.
Consider `C=CC(=O)N1CCC(N2Cc3cnc(Nc4ccc(N5CCN(C)C6(CC6)C5)cc4)nc3N(C)C2=O)c2ccccc21` (stereo not drawn) [Compound 085, 1-methyl-7-[4-(4-methyl-4,7-diazaspiro[2.5]octan-7-yl)anilino]-S-(1-prop-2-enoyl-3,4-dihydro-2H-quinolin-4-yl)-4H-pyrimido[4,5-d]pyrimidin-2-one], for which the GI50 in assay [1] and in assay [2] was less than 100 nM in each case.
Take `C=CC(=O)N1CCC(N2Cc3cnc(Nc4ccc(N5CCN(C)CC5)cn4)cc3N(C)C2=O)c2ccccc21` (stereo not drawn) [Compound 086, 1-methyl-7-[[5-(4-methylpiperazin-1-yl)-2-pyridyl]amino]-S-(1-prop-2-enoyl-3,4-dihydro-2H-quinolin-4-yl)-4Hpyrido[4,3-d]pyrimidin-2-one]: the GI50 in assay [1] and in assay [2] was less than 100 nM throughout.
Regarding `C=CC(=O)N1CCC(N2Cc3cnc(Nc4ccc(N5CCN(C)CC5)cc4OC(F)(F)F)nc3N(C)C2=O)c2ccccc21` (stereo not shown) [Compound 087], the GI50 in assay [1] and in assay [2] was less than 100 nM in each case.
With `C=CC(=O)N1CCC(N2Cc3cnc(Nc4ccc(CN5CCN(C)CC5)c(Cl)c4)nc3N(C)C2=O)c2ccccc21` (stereo not shown) [Compound 088], the GI50 in assay [1] and in assay [2] was less than 100 nM each time.
For the molecule `C=CC(=O)N1CCC(N2Cc3cnc(Nc4ccc(N5CCN(C)CC5)cc4)nc3N(C)C2=O)CC12CCC2` (stereo not drawn) [Compound 089, 1-methyl-7-[4-(4-methylpiperazin-1-yl)anilino]-S-(5-prop-2-enoyl-5-azaspiro[3.5]nonan-8-yl)-4H-pyrimido[4,5-d]pyrimidin-2-one], the GI50 in assay [1] and in assay [2] was no less than 2500 nM throughout.
As for `C=C(C)C(=O)N1CC[C@H](N2Cc3cnc(Nc4ccc(N5CCN(C)CC5)cc4)nc3N(C)C2=O)c2ccccc21` [Compound 090], the GI50 in assay [1] and in assay [2] was 500 to 2500 nM in each case.
Take `C/C=C/C(=O)N1CC[C@H](N2Cc3cnc(Nc4ccc(N5CCN(C)CC5)cc4)nc3N(C)C2=O)c2ccccc21` [Compound 091]: the GI50 in assay [1] and in assay [2] was 100 to 500 nM each time.
As to `C=CC(=O)N1CCC(N2Cc3nnc(Nc4ccc(N5CCN(C)CC5)cc4)cc3N(C)C2=O)c2ccccc21` (stereo not drawn) [Compound 092, 5-methyl-S-[4-(4-methylpiperazin-1-yl)anilino]-7-(1-prop-2-enoyl-3,4-dihydro-2H-quinolin-4-yl)-8H-pyrimido[5,4-c]pyridazin-6-one], the GI50 in assay [1] and in assay [2] was no less than 2500 nM in each case.
As for `C=C(F)C(=O)N1CC[C@H](N2Cc3cnc(Nc4cnn(CCO)c4)nc3N(C)C2=O)c2ccccc21` [Compound 093], the GI50 in assay [1] and in assay [2] was less than 100 nM in each case.
For the molecule `C=CC(=O)N1CCC(N2Cc3cnc(Nc4ccc(N5CCN(C)CC5)cc4)nc3N(C)C2=O)C2(CCC2)C1` (stereo not shown) [Compound 094], the GI50 in assay [1] and in assay [2] was no less than 2500 nM throughout.
Turning to `CN1CCN(c2ccc(Nc3ncc4c(n3)N(C)C(=O)N([C@H]3CCN(C(=O)/C=C/CF)c5ccccc53)C4)cc2)CC1` [Compound 095], the GI50 in assay [1] and in assay [2] was less than 100 nM in each case.
On to `CN1CCN(c2ccc(Nc3ncc4c(n3)N(C)C(=O)N([C@H]3CCN(C(=O)CC#N)c5ccccc53)C4)cc2)CC1` [Compound 096], for which the GI50 in assay [1] and in assay [2] was no less than 2500 nM throughout.
Turning to `C/C=C(\F)C(=O)N1CC[C@H](N2Cc3cnc(Nc4ccc(N5CCN(C)CC5)cc4)nc3N(C)C2=O)c2ccccc21` [Compound 097], the GI50 in assay [1] was 500 to 2500 nM; in assay [2] it was 100 to 500 nM.
As for `C=C(F)C(=O)N1CC[C@H](N2Cc3cnc(Nc4ccc5c(c4)CCN(C)C5)nc3N(C)C2=O)c2ccccc21` [Compound 098], the GI50 in assay [1] and in assay [2] was less than 100 nM throughout.
`C=CC(=O)N1CCC(N2Cc3cnc(Nc4ccc(N5CCN(C)CC5)cc4)nc3N(C)C2=O)c2cccc(F)c21` (stereo not shown) [Compound 099, 3-(8-fluoro-1-prop-2-enoyl-3,4-dihydro-2H-quinolin-4-yl)-1-methyl-7-[4-(4-methylpiperazin-1-yl)anilino]-4H-pyrimido[4,5-d]pyrimidin-2-one]: the GI50 in assay [1] and in assay [2] was less than 100 nM throughout.
`C=CC(=O)N1CCC(N2Cc3cnc(Nc4ccc(N5CCN(C)CC5)cc4)nc3N(C)C2=O)c2cccc(OC)c21` (stereo not shown) [Compound 100, 3-(8-methoxy-1-prop-2-enoyl-3,4-dihydro-2H-quinolin-4-yl)-1-methyl-7-[4-(4-methylpiperazin-1-yl)anilino]-4H-pyrimido[4,5-d]pyrimidin-2-one]: the GI50 in assay [1] and in assay [2] was less than 100 nM throughout.
Turning to `C/C=C(\C#N)C(=O)N1CC[C@H](N2Cc3cnc(Nc4ccc(N5CCN(C)CC5)cc4)nc3N(C)C2=O)c2ccccc21` [Compound 101], the GI50 in assay [1] and in assay [2] was no less than 2500 nM throughout.
For the molecule `C=C(F)C(=O)N1CC[C@H](N2Cc3cnc(Nc4cnn(CCO)c4)nc3N(C3CCOC3)C2=O)c2ccccc21` (stereo partly drawn) [Compound 102, 3-((S)-1-(2-fluoroacryloyl)-1,2,3,4-tetrahydroquinolin-4-yl)-7-((1-(2-hydroxyethyl)-1 H-pyrazol-4-yl)amino)-1-(tetrahydrofuran-S-yl)-3,4-dihydropyrimido[4,5-d]pyrimidin-2(1H)-one], the GI50 in assay [1] and in assay [2] was less than 100 nM in each case.
For the molecule `CN1C(=O)N([C@H]2CCN(C#N)c3ccccc32)Cc2cnc(Nc3cnn(CCO)c3)nc21` [Compound 103], the GI50 in assay [1] and in assay [2] was no less than 2500 nM in each case.
With `CN1C(=O)N([C@H]2CCN(C(=O)CC#N)c3ccccc32)Cc2cnc(Nc3cnn(CCO)c3)nc21` [Compound 104], the GI50 in assay [1] and in assay [2] was no less than 2500 nM each time.
As for `C=CC(=O)N1CCC(N2Cc3nnc(Nc4ccc(N5CCN(C)CC5)cn4)cc3N(C)C2=O)c2ccccc21` (stereo not shown) [Compound 105], the GI50 in assay [1] and in assay [2] was no less than 2500 nM throughout.
On to `CN1C(=O)N(C2CN(C#N)c3ccccc32)Cc2cnc(Nc3cnn(CCO)c3)nc21` (stereo not shown) [Compound 106, 3-[7-[[1-(2-hydroxyethyl)pyrazol-4-yl]amino]-1-methyl-2-oxo-4H-pyrimido[4,5-d]pyrimidin-S-yl]indoline-1-carbonitrile], for which the GI50 in assay [1] and in assay [2] was no less than 2500 nM each time.
With `C=CC(=O)N1c2ccccc2C(N2Cc3cnc(Nc4ccc(N5CCN(C)CC5)cc4)nc3N(C)C2=O)CC1(C)C` (stereo not shown) [Compound 107, 3-(1-acryloyl-2,2-dimethyl-1,2,3,4-tetrahydroquinolin-4-yl)-1-methyl-7-((4-(4-methylpiperazin-1-yl)phenyl)amino)-3,4-dihydropyrimido[4,5-d]pyrimidin-2(1H)-one], the GI50 in assay [1] and in assay [2] was no less than 2500 nM in each case.
Regarding `C=C(F)C(=O)N1CC(F)(F)C(N2Cc3cnc(Nc4cnn(CCO)c4)nc3N(C)C2=O)c2ccccc21` (stereo not shown) [Compound 108, 3-[3,3-difluoro-1-(2-fluoroprop-2-enoyl)-2,4-dihydroquinolin-4-yl]-7-[[1-(2-hydroxyethyl)pyrazol-4-yl]amino]-1-methyl-4H-pyrimido[4,5-d]pyrimidin-2-one], the GI50 in assay [1] was no less than 2500 nM; in assay [2], 500 to 2500 nM.
Consider `C=C(F)C(=O)N1CC[C@H](N2Cc3cnc(Nc4ccc5c(c4)CCN(C)C5)nc3N(c3cnn(C)c3)C2=O)c2ccccc21` [Compound 109], for which the GI50 in assay [1] and in assay [2] was less than 100 nM throughout.

(Values after patent US20240352021A1 (DANA-FARBER CANCER INSTITUTE, INC., priority 2021, published 2024).)
